In assay [1] the test system is Peripheral Neuropathy in a Mouse Caused by Vincristine. It counts as in vivo, Balb/c mice. The note with it: 0.2 mg/kg vincristine + 100 mg/kg orally daily from Day 6 (therapy); from Day 12 onwards. An excerpt: (§1) Six to seven-week-old female Balb/c mice were used for the tests. All the mice were acclimated for seven days after arrival. Then, the mice were grouped into the following four groups: a control group, a group receiving vincristine, a group receiving xylitol, and a group receiving vincristine and xylitol (a group receiving vincristine+xylitol). Each group consisted of five mice.
(§2) On Day 8 of acclimation, the mice in the group receiving vincristine and the group receiving vincristine+xylitol were intraperitoneally administered with vincristine at a dose of 0.2 mg/kg. This day was designated as Day 0 of administration. Thereafter, these mice were intraperitoneally administered with vincristine at a daily dose of 0.2 mg/kg on Day 7 and Day 14.
(§3) The mice in the group receiving xylitol and the group receiving vincristine+xylitol were orally administered with xylitol at a dose of 5 mg/kg daily from Day 0.
The mice in the four groups described in (7) of the present example (Example 1) were placed in a cage, and the avoidance response frequency (score) was measured by pressing a filament with a bending force of 0.16 g against the back of the hind paw.
Six to seven-week-old female Balb/c mice were used for the tests as with Example 1. All the mice were acclimated for seven days after arrival. Then, the mice were grouped into the following four groups: a control group, a group receiving vincristine, a group receiving xylitol, and a group receiving vincristine and xylitol (a group receiving vincristine+xylitol). Each group consisted of five mice. […]
For the mice in the four groups described in (9) of the present example (Example 2), the avoidance response frequency (score) was measured by pressing a filament with a bending force of 0.16 g against the back of the hind paw. […]
The mice in the four groups described in (7) of the present example (Example 3) were placed in a cage, and the avoidance response frequency (score) was measured by pressing a filament with a bending force of 0.16 g against the back of the hind paw. […]

Assay [2] has the same test system. It is filed as in vivo, Balb/c mice.
From the text: as §1, §2, §3
A cold plate test was performed to examine the effect of xylitol on paresthesia that is caused by a low temperature stimulus. The mice in the four groups described in (7) of the present example (Example 1) were placed on a cold plate set at 10° C., and withdrawal response time (latent time) was measured. It is presumed that a shorter latent time reflects a greater degree of shunning the low temperature stimulus by the cold plate.
Six to seven-week-old female Balb/c mice were used for the tests as with Example 1. All the mice were acclimated for seven days after arrival. Then, the mice were grouped into the following four groups: a control group, a group receiving vincristine, a group receiving xylitol, and a group receiving vincristine and xylitol (a group receiving vincristine+xylitol). Each group consisted of five mice.
On Day 8 of acclimation, the mice in the group receiving vincristine and the group receiving vincristine+xylitol were intraperitoneally administered with vincristine at a dose of 0.2 mg/kg. This day was designated as the first day of the administration (Day 0). Thereafter, these mice were intraperitoneally administered with vincristine at the same dose on Day 7 and Day 14 for a total of 3 doses.
The mice in the group receiving 100 mg/kg xylitol were orally administered with xylitol at a dose of 100 mg/kg daily from Day 0. The mice in the group receiving vincristine+100 mg/kg xylitol were orally administered with xylitol at a dose of 100 mg/kg daily from Day 6 of administration.
A test was performed on the mice in the four groups described in (9) of the present example (Example 2) to examine the effect of xylitol on paresthesia that is caused by a low temperature stimulus. The mice in respective groups were placed on a cold plate set at 10° C., and withdrawal response time (latent time) was measured. It is presumed that a shorter latent time reflects a greater degree of shunning the low temperature stimulus by the cold plate.
Six to seven-week-old female Balb/c mice were used for the tests as with Example 1. All the mice were acclimated for seven days after arrival. Then, the mice were grouped into the following four groups: a control group, a group receiving vincristine, a group receiving D-threitol, and a group receiving vincristine and D-threitol (a group receiving vincristine+D-threitol). Each group consisted of five mice.
On Day 8 of acclimation, the mice in the group receiving vincristine and the group receiving vincristine+D-threitol were intraperitoneally administered with vincristine at a dose of 0.2 mg/kg. This day was designated as Day 0 of administration. Thereafter, these mice were intraperitoneally administered with vincristine at a daily dose of 0.2 mg/kg on Day 7 and Day 14.
The mice in the group receiving D-threitol and the group receiving vincristine+D-threitol were orally administered with D-threitol at a dose of 5 mg/kg daily from Day 0.
A cold plate test was performed to examine the effect of D-threitol on paresthesia that is caused by a low temperature stimulus. […]

Setting [3] is: 0.2 mg/kg vincristine + 5 mg/kg test substance orally daily from Day 0 (prevention).
[4] abbreviates: 0.2 mg/kg vincristine + 100 mg/kg orally daily from Day 6, on Day 12, vs group receiving 0.2 mg/kg vincristine.

Where two headings read alike, the source gives them in different places.

As for `OC[C@@H](O)[C@H](O)CO` [D-threitol], in assay [1], the avoidance response score result is “maintained a score clearly lower than that of the group receiving vincristine”. Moreover, the “withdrawal response time (latent time)” value in assay [2] (setting [3]) is “approximately similar to that of the control group”; in assay [2] (0.2 mg/kg vincristine + 100 mg/kg orally daily from Day 6 (therapy), time course after Day 6), “significantly longer withdrawal response time”; in assay [2] (setting [4]), “significantly longer withdrawal response time”.
Take `OC[C@H](O)[C@H](O)[C@H](O)[C@@H](O)CO` [L-talitol]: in assay [1], the avoidance response score result was “maintained a score clearly lower than that of the group receiving vincristine”. Besides, the “withdrawal response time (latent time)” value in assay [2] (setting [3]) is listed as “approximately similar to that of the control group”; in assay [2] (setting [4]), “significantly longer withdrawal response time”.
For `OC[C@@H](O)[C@H](O)[C@@H](O)CO` [xylitol] the same measures were “maintained a score clearly lower than that of the group receiving vincristine”, “approximately similar to that of the control group” and “significantly longer withdrawal response time”.

The values above are taken from US20240099989A1, “AGENT FOR PREVENTING OR IMPROVING PERIPHERAL NEUROPATHY” (KINKI UNIVERSITY, priority 2021, published 2024).
